Results on 22 compounds are retold here after patent US7750003B2, “Compounds-943” (AstraZeneca AB, priority 2006, dated 2010).

Molecules are shown by their SMILES.

The test system of the assay is phosphorylation of Serine 473 in Akt in MDA-MB-468 human breast adenocarcinoma cells. The experiment in a line: In vitro phospho-Ser473 Akt assay (Test (c)). In kind it is cell-based. The following applies: Homo sapiens, MDA-MB-468, 2 h, MDA-MB-468 cells, 2 hours incubation; read-out: Test (c): IC50 versus Serine 473 in Akt. How it is done:
(c) In Vitro Phospho-Ser473 Akt Assay
This assay determines the ability of test compounds to inhibit phosphorylation of Serine 473 in Akt as assessed using Acumen Explorer technology (Acumen Bioscience Limited), a plate reader that can be used to rapidly quantitate features of images generated by laser-scanning.
A MDA-MB-468 human breast adenocarcinoma cell line (LGC Promochem, Teddington, Middlesex, UK, Catalogue No. HTB-132) was routinely maintained at 37° C. with 5% CO2 up to a confluency of 70-90% in DMEM containing 10% heat-inactivated FCS and 1% L-glutamine.
For the assay, the cells were detached from the culture flask using ‘Accutase’ (Innovative Cell Technologies Inc., San Diego, Calif., USA; Catalogue No. AT104) using standard tissue culture methods and resuspended in media to give 1.7×10^5 cells per mL. Aliquots (90 μl) were seeded into each of the inner 60 wells of a black Packard 96 well plate (PerkinElmer, Boston, Mass., USA; Catalogue No. 6005182) to give a density of 15000 cells per well. Aliquots (90 μl) of culture media were placed in the outer wells to prevent edge effects. The cells were incubated overnight at 37° C. with 5% CO2 to allow them to adhere.
On day 2, the cells were treated with test compounds and incubated for 2 hours at 37° C. with 5% CO2. Test compounds were prepared as 10 mM stock solutions in DMSO and serially diluted as required with growth media to give a range of concentrations that were 10-fold the required final test concentrations. Aliquots (10 μl) of each compound dilution were placed in a well (in triplicate) to give the final required concentrations. As a minimum response control, each plate contained wells having a final concentration of 100 μM LY294002 (Calbiochem, Beeston, UK, Catalogue No. 440202). As a maximum response control, wells contained 1% DMSO instead of test compound. Following incubation, the contents of the plates were fixed by treatment with a 1.6% aqueous formaldehyde solution (Sigma, Poole, Dorset, UK, Catalogue No. F1635) at room temperature for 1 hour.
All subsequent aspiration and wash steps were carried out using a Tecan 96 well plate washer (aspiration speed 10 mm/sec). The fixing solution was removed and the contents of the plates were washed with phosphate-buffered saline (PBS; 50 μl; Gibco, Catalogue No. 10010015). The contents of the plates were treated for 10 minutes at room temperature with an aliquot (50 μl) of a cell permeabilisation buffer consisting of a mixture of PBS and 0.5% Tween-20. The ‘permeabilisation’ buffer was removed and non-specific binding sites were blocked by treatment for 1 hour at room temperature of an aliquot (50 μl) of a blocking buffer consisting of 5% dried skimmed milk [‘Marvel’ (registered trade mark); Premier Beverages, Stafford, GB] in a mixture of PBS and 0.05% Tween-20. The ‘blocking’ buffer was removed and the cells were incubated for 1 hour at room temperature with rabbit anti phospho-Akt (Ser473) antibody solution (50 μl per well; Cell Signalling, Hitchin, Herts, U.K., Catalogue No 9277) that had been diluted 1:500 in ‘blocking’ buffer. Cells were washed three times in a mixture of PBS and 0.05% Tween-20. Subsequently, cells were incubated for 1 hour at room temperature with Alexafluor488 labelled goat anti-rabbit IgG (50 μl per well; Molecular Probes, Invitrogen Limited, Paisley, UK, Catalogue No. A11008) that had been diluted 1:500 in ‘blocking’ buffer. Cells were washed 3 times with a mixture of PBS and 0.05% Tween-20. An aliquot of PBS (50 μl) was added to each well and the plates were sealed with black plate sealers and the fluorescence signal was detected and analysed.
Fluorescence dose response data obtained with each compound were analysed and the degree of inhibition of Serine 473 in Akt was expressed as an IC50 value.
What is called IC50 is the concentration at which inhibition is half-maximal. Consider `C[C@H]1COCCN1c1cc(C(C)(C)S(C)(=O)=O)nc(-c2ccc(NC(=O)N3CCC3)cc2)n1` [Example 24be, N-[4-[4-[(3S)-3-methylmorpholin-4-yl]-6-(2-methylsulfonylpropan-2-yl)pyrimidin-2-yl]phenyl]azetidine-1-carboxamide], for which the IC50 is 4900 nM. In the case of `C[C@H]1COCCN1c1cc(C(C)(C)S(C)(=O)=O)nc(-c2ccc(NC(=O)N3CC(O)C3)cc2)n1` [Example 24bf, 3-hydroxy-N-[4-[4-[(3S)-3-methylmorpholin-4-yl]-6-(2-methylsulfonylpropan-2-yl)pyrimidin-2-yl]phenyl]azetidine-1-carboxamide] it was 6700 nM; in that of `C[C@H]1COCCN1c1cc(C(C)(C)S(C)(=O)=O)nc(-c2ccc(NC(=O)N(C)C3CC3)cc2)n1` [Example 24bg, 1-cyclopropyl-1-methyl-3-[4-[4-[(3S)-3-methylmorpholin-4-yl]-6-(2-methylsulfonylpropan-2-yl)pyrimidin-2-yl]phenyl]urea], 2400 nM.

For the compound `CC(=O)NCCS(=O)(=O)Cc1cc(N2CCOC[C@@H]2C)nc(-c2ccc(NC(=O)Nc3ccon3)cc2)n1` [Example 40, N-[2-[[6-[(3S)-3-methylmorpholin-4-yl]-2-[4-(1,2-oxazol-3-ylcarbamoylamino)phenyl]pyrimidin-4-yl]methylsulfonyl]ethyl]acetamide], the IC50 came to 100 nM. In the case of `C[C@H]1COCCN1c1cc(CS(=O)(=O)CCO)nc(-c2ccc(NC(=O)Nc3ccon3)cc2)n1` [Example 40a, 1-[4-[4-(2-hydroxyethylsulfonylmethyl)-6-[(3S)-3-methylmorpholin-4-yl]pyrimidin-2-yl]phenyl]-3-(1,2-oxazol-3-yl)urea] it was 55 nM; in that of `C[C@H]1COCCN1c1cc(C(C)(C)O)nc(-c2ccc(NC(=O)Nc3ccon3)cc2)n1` [Example 41, 1-[4-[4-(2-Hydroxypropan-2-yl)-6-[(3S)-3-methylmorpholin-4-yl]pyrimidin-2-yl]phenyl]-3-(1,2-oxazol-3-yl)urea], 47 nM. In the case of `Cc1nnc(S(=O)(=O)Cc2cc(N3CCOC[C@@H]3C)nc(-c3ccc(NC(=O)NC4CC4)cc3)n2)s1` [Example 43g, 3-cyclopropyl-1-[4-[4-[(3S)-3-methylmorpholin-4-yl]-6-[(5-methyl-1,3,4-thiadiazol-2-yl)sulfonylmethyl]pyrimidin-2-yl]phenyl]urea] it was 1900 nM.

Regarding `C[C@H]1COCCN1c1cc(CS(=O)(=O)C23CC4CC(CC(C4)C2)C3)nc(-c2ccc(NC(=O)NC3CC3)cc2)n1` [Example 43k, 1-[4-[4-(1-adamantylsulfonylmethyl)-6-[(3S)-3-methylmorpholin-4-yl]pyrimidin-2-yl]phenyl]-3-cyclopropyl-urea], the IC50 was 2900 nM. To `C[C@H]1COCCN1c1cc(CS(=O)(=O)c2ccncc2)nc(-c2ccc(NC(=O)NC3CCC3)cc2)n1` [Example 48, 3-Cyclobutyl-1-[4-[4-[(3S)-3-methylmorpholin-4-yl]-6-(pyridin-4-ylsulfonylmethyl)pyrimidin-2-yl]phenyl]urea] belongs 38 nM; to `CCNC(=O)Nc1ccc(-c2nc(CS(=O)(=O)c3ccncc3)cc(N3CCOC[C@@H]3C)n2)cc1` [Example 48a, 3-ethyl-1-[4-[4-[(3S)-3-methylmorpholin-4-yl]-6-(pyridin-4-ylsulfonylmethyl)pyrimidin-2-yl]phenyl]urea], 250 nM; to `C[C@H]1COCCN1c1cc(CN(C)C)nc(-c2ccc(NC(=O)NC3CC3)cc2)n1` [Example 49d, 3-cyclopropyl-1-[4-[4-(dimethylaminomethyl)-6-[(3S)-3-methylmorpholin-4-yl]pyrimidin-2-yl]phenyl]urea], 620 nM. In the case of `C[C@H]1COCCN1c1cc(CN2CCNC(=O)C2)nc(-c2ccc(NC(=O)NC3CC3)cc2)n1` [Example 49j, 3-cyclopropyl-1-[4-[4-[(3S)-3-methylmorpholin-4-yl]-6-[(3-oxopiperazin-1-yl)methyl]pyrimidin-2-yl]phenyl]urea] it was 130 nM; in that of `C[C@H]1COCCN1c1cc(CS(=O)(=O)CCO)nc(-c2ccc(NC(=O)NCc3cnn(C)c3)cc2)n1` [Example 53b, 1-[4-[4-(2-hydroxyethylsulfonylmethyl)-6-[(3S)-3-methylmorpholin-4-yl]pyrimidin-2-yl]phenyl]-3-[(1-methylpyrazol-4-yl)methyl]urea], 3000 nM. To `COCc1cc(N2CCOC[C@@H]2C)nc(-c2ccc(NC(=O)NC3CC3)cc2)n1` [Example 54, 3-Cyclopropyl-1-[4-[4-(methoxymethyl)-6-[(3S)-3-methylmorpholin-4-yl]pyrimidin-2-yl]phenyl]urea] belongs 110 nM; to `CNC(=O)Nc1ccc(-c2nc(N3CCOC[C@@H]3C)cc(C(C)(C)S(=O)(=O)C3CC3)n2)cc1` [Example 57, 1-[4-[4-(2-Cyclopropylsulfonylpropan-2-yl)-6-[(3S)-3-methylmorpholin-4-yl]pyrimidin-2-yl]phenyl]-3-methyl-urea], 250 nM. For the compound `C[C@H]1COCCN1c1cc(C(C)(C)S(=O)(=O)C2CC2)nc(-c2ccc(NC(=O)NC(C)(C)CO)cc2)n1` [Example 57a, 1-[4-[4-(2-cyclopropylsulfonylpropan-2-yl)-6-[(3S)-3-methylmorpholin-4-yl]pyrimidin-2-yl]phenyl]-3-(1-hydroxy-2-methyl-propan-2-yl)urea], the IC50 came out at 64 nM. In the case of `C[C@H]1COCCN1c1cc(C(C)(C)S(=O)(=O)C2CC2)nc(-c2ccc(NC(=O)Nc3cnn(C)c3)cc2)n1` [Example 57c, 1-[4-[4-(2-cyclopropylsulfonylpropan-2-yl)-6-[(3S)-3-methylmorpholin-4-yl]pyrimidin-2-yl]phenyl]-3-(1-methylpyrazol-4-yl)urea] it was 360 nM. In the case of `CNC(=O)Nc1ccc(-c2nc(CS(=O)(=O)C3CC3)cc(N3CCOC[C@@H]3C)n2)cc1` [Example 57d, 1-[4-[4-(cyclopropylsulfonylmethyl)-6-[(3S)-3-methylmorpholin-4-yl]pyrimidin-2-yl]phenyl]-3-methyl-urea], the IC50 came out at 840 nM.

Turning to `C[C@H]1COCCN1c1cc(CS(=O)(=O)C2CC2)nc(-c2ccc(NC(=O)NC(C)(C)CO)cc2)n1` [Example 57e, 1-[4-[4-(cyclopropylsulfonylmethyl)-6-[(3S)-3-methylmorpholin-4-yl]pyrimidin-2-yl]phenyl]-3-(1-hydroxy-2-methyl-propan-2-yl)urea], the IC50 worked out at 380 nM. In the case of `C[C@H]1COCCN1c1cc(CS(=O)(=O)C2CC2)nc(-c2ccc(NC(=O)NCCN(C)C)cc2)n1` [Example 57f, 1-[4-[4-(cyclopropylsulfonylmethyl)-6-[(3S)-3-methylmorpholin-4-yl]pyrimidin-2-yl]phenyl]-3-(2-dimethylaminoethyl)urea] it was 720 nM; in that of `C[C@H]1COCCN1c1cc(CS(=O)(=O)C2CC2)nc(-c2ccc(NC(=O)Nc3cnn(C)c3)cc2)n1` [Example 57g, 1-[4-[4-(cyclopropylsulfonylmethyl)-6-[(3S)-3-methylmorpholin-4-yl]pyrimidin-2-yl]phenyl]-3-(1-methylpyrazol-4-yl)urea], 95 nM. As to `C[C@H]1COCCN1c1cc(C(C)(C)S(=O)(=O)C2CC2)nc(-c2ccc(NC(=O)NC3CCC3)cc2)n1` [Example 57h, 3-cyclobutyl-1-[4-[4-(2-cyclopropylsulfonylpropan-2-yl)-6-[(3S)-3-methylmorpholin-4-yl]pyrimidin-2-yl]phenyl]urea], the IC50 is 66 nM.
